Test results from patent publication US20250034211A1, “C-TERMINAL EXTENDED P53 ACTIVATOR CROSSLINKED PEPTIDOMIMETIC MACROCYCLES AGAINST MDM2/MDMX” (Merck Sharp & Dohme LLC, priority 2021, published 2025).
In brackets after ≈: the same amount, converted by molar mass. Like-named read-outs stand apart in the source and are kept apart here. Where a SMILES comes first, the peptide text is derived from it. Bridges are numbered along the chain shown (N, C = ends). [ ]: non-standard residue; d: D form. Lys(N3) = [N-]=[N+]=NCCCC[C@H](N)C(=O)O; Gla = N[C@@H](CC(C(=O)O)C(=O)O)C(=O)O; R8 = C=CCCCCCC[C@@](C)(N)C(=O)O; Cba = N[C@@H](CC1CCC1)C(=O)O; S5 = C=CCCC[C@](C)(N)C(=O)O; Aib = CC(C)(N)C(=O)O; βAla = NCCC(=O)O

Legend:
[1] = tested on: p53 (HCT116 cells stably transfected with a p53 responsive β-lactamase reporter); assay: p53 beta-lactamase reporter gene cellular functional assay; assay type: cell-based
Procedure: HCT116 cells were stably transfected with a p53 responsive β-lactamase reporter, and were seeded into a 384-well plate at a density of 8,000 cells per well. Cells were maintained in McCoy's 5A Medium with 10% fetal bovine serum ([…]), Blasticidin and Penicillin/Streptomycin. The cells were incubated overnight and followed by removal of cell growth media and replaced with Opti-MEM either containing 0% FBS or 10% FBS. Peptides were then dispensed to each well using a liquid handler, ECHO 555 and incubated for 4/16 hours. Final working concentration of dimethyl sulfoxide (DMSO) was 0.5%. β-Lactamase activity was detected using the ToxBLAzer Dual Screen (Invitrogen) as per manufacturer's instructions. Measurements were done using Envision multiplate reader (Perkin-Elmer). Maximum p53 activity was defined as the amount of β-lactamase activity induced by 50 μM azide-ATSP-7041 (stapled p53 peptide; Aileron Therapeutics, Inc.). This was determined as the highest amount of p53 activity induced by azide-ATSP-7041 by titration on HCT116 cells.

[2] = target: T1, MDM2 (1-125; SEQ ID NO 14) (Homo sapiens, UniProt Q00987); assay: MDM2 binding assay (fluorescence anisotropy competition, FP)
T1 construct: GST (N); His6 (internal); TEV cleavage site ENLYFQG (internal); made in house; host or cells: E. coli BL21 (DE3) Rosetta T1R
Procedure: [P] is the protein concentration (MDM2), [L] is the labeled peptide concentration, r is the anisotropy measured, r0 is the anisotropy of the free peptide, rb is the anisotropy of the MDM2-FAM-labeled peptide complex, Kd is the dissociation constant, [L]t is the total FAM labeled peptide concentration, and [P]t is the total MDM2 concentration. […] The competing molecules were then titrated against the complex of the FAM-labeled peptide and protein. Apparent Kd values were determined by fitting the experimental data to the equations shown below:
[L]st and [L]t denote labeled ligand and total unlabeled ligand input concentrations, respectively. Kd2 is the dissociation constant of the interaction between the unlabeled ligand and the protein. In all competition experiments, it is assumed that [P]t>[L]st, otherwise considerable amounts of free labeled ligand would always be present and would interfere with measurements. […] The FAM-labeled peptide was dissolved in dimethyl sulfoxide (DMSO) at 1 mM and diluted into experimental buffer. Readings were carried out with an Envision Multilabel Reader (PerkinElmer). […] All titrations were carried out in triplicate. Curve-fitting was carried out using Prism 4.0 (GraphPad). […] Negative control titrations of the ligands under investigation were also carried out with the fluorescently labeled peptide (in the absence of MDM2) to ensure no interactions were occurring between the ligands and the FAM-labeled peptide.

HCT116 cells = assay: Lactate dehydrogenase release assay (LDH); assay type: cell-based
Procedure: HCT116 cells were seeded into a 384-well plate at a density of 8000 cells per well. Cells were maintained in McCoy's 5A Medium with 10% fetal bovine serum (FBS), Blasticidin and Penicillin/Streptomycin. The cells were incubated overnight followed by the removal of cell media and the addition of Opti-MEM Medium without FBS. Cells were then treated with peptides for 4/16 hours in Opti-MEM either in 10% FBS or serum free. Final concentration of DMSO was 0.5%. Lactate dehydrogenase release was detected using CytoTox-ONE Homogenous Membrane Integrity Assay Kit (Promega) as per manufacturer's instructions. Measurements were carried out using Tecan plate reader. Maximum LDH release was defined as the amount of LDH released induced by the lytic peptide (iDNA79) and used to normalize the results.

[3] = tested on: Jump-In T-REx CHO-K1 BLA cells; assay: Tetracycline beta-lactamase reporter gene assay (counter screen); assay type: cell-based
Procedure: Based on Jump-In™ T-REx™ CHO-K1 BLA cells and contain a stably integrated β-lactamase under the control of an inducible CMV promoter. Cells were seeded into a 384-well plate a density of 4000 cells per well. Cells were maintained in Dulbecco's Minimal Eagle Medium (DMEM) with 10% fetal bovine serum (FBS), Blasticidin and Penicillin/Streptomycin. The cells were incubated for 24 hours, followed by cell media removal and replacement with Opti-MEM either containing 10% FBS or 0% FBS. Peptides were then dispensed to each well using a liquid handler, ECHO 555 and incubated for 4/16 hours. Final working concentration of DMSO was 0.5%. β-Lactamase activity was detected using the ToxBLAzer Dual Screen (Invitrogen) as per manufacturer's instructions. Measurements were carried out using Envision multiplate reader (Perkin Elmer). Counter Screen activity was defined as the amount of 0-lactamase activity induced by tetracycline.

[4] = Circular dichroism (CD) helicity; assay type: physicochemical
Procedure: The dried peptide was reconstituted in a buffer containing 1 mM HEPES pH 7.4 and 5% methanol to a concentration of 1 mM. The peptide sample was placed in a quartz cuvette with a path length of 0.2 cm and a CD spectrum was recorded from 300 to 190 nm at 25° C. using the Chirascan-plus qCD machine (Applied Photophysics). The actual concentration of the peptide was determined by the absorbance of the peptide at […]. An estimate of the secondary structure components of the peptide was carried out by converting the CD spectrum to mean residue ellipticity before deconvoluting using the CDNN software (distributed by Applied Photophysics). All experiments were done in duplicate.

p53 null Ca Ski = conditions: for % inhibition at maximum concentration in p53 null negative control cell line: maximum assay concentration (50 uM)
Solubility (PBS, pH 7) = conditions: for solubility: PBS, pH 7
[5] = read-out: HCT116 proliferation EC50, 72 h, 10% serum

T1 sequence (Q00987 with tags, fused parts or gaps): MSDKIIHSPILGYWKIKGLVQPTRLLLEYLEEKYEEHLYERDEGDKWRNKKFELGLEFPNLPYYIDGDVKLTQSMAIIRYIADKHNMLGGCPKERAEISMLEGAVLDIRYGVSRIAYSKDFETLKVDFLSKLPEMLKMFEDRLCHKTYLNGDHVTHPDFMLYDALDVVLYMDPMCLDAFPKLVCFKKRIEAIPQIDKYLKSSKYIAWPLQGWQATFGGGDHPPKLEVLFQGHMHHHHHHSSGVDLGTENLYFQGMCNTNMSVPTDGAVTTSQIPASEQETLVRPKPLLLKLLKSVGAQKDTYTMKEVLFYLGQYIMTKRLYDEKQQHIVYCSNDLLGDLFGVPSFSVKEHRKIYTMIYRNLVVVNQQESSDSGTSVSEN

| SMILES | EC50 ([1]; 0% serum at 4 hours) [nM] | EC50 ([1]; 10% serum at 16 hours) [nM] | HCT116 proliferation % Max (HCT116; 72 h, 10% serum) [%] | EC50 (HCT116; [5]) [nM] | EC50 (HCT116; read-out: cellular efficacy in cell proliferation HTC116 p53 positive control cell lines) [nM] | Kd [2] [nM] | EC50 (HCT116 cells; 0% FBS, 4 h) [nM] | EC50 (HCT116 cells; 10% FBS, 16 h) [nM] | EC50 ([3]; 0% FBS, 4 h) [nM] | EC50 ([3]; 10% FBS, 16 h) [nM] | CD (% helicity) [4] [%] | % inhibition at maximum concentration in p53 null negative control cell line (p53 null Ca Ski) [%] | logD (HPLC LogD) | solubility (in words) (Solubility (PBS, pH 7)) | solubility (Solubility (PBS, pH 7)) [µM] | fold improvement in HTC116 cell proliferation assay (HCT116; as compared to Macrocycle 3) | p53 null Ca Ski proliferation % Max (p53 null Ca Ski; 72 h, 10% serum) [%] | chromatographic logD (HPLC LogD) |
| --- | --- | --- | --- | --- | --- | --- | --- | --- | --- | --- | --- | --- | --- | --- | --- | --- | --- | --- |
| CC(=O)N[C@@H](CCCCN=[N+]=[N-])C(=O)NCCC(=O)N[C@@H](CC(C)C)C(=O)N[C@H](C(=O)N[C@@H](Cc1ccccc1)C(=O)N[C@]1(C)CCCCCCC=CCCC[C@@](C)(C(=O)N[C@@H](C)C(=O)N[C@@H](C)C(=O)N[C@@H](Cc2ccccc2)C(=O)N[C@@H](C)C(=O)N[C@@H](C)C(=O)N[C@@H](Cc2ccccc2)C(N)=O)NC(=O)[C@H](CC2CCC2)NC(=O)[C@H](CCC(N)=O)NC(=O)[C@H](C)NC(=O)[C@H](Cc2c[nH]c3ccccc23)NC(=O)[C@H](Cc2ccc(O)cc2)NC(=O)[C@H](CCC(=O)O)NC1=O)[C@@H](C)O [Macrocycle 4, Ac-K(N3)-betaAla-L-T-F-X1a-E-Y-W-A-Q-Cba-X2a-AAFAAF-NH2 (olefin staple from X1a to X2a)] (Ac-[Lys(N3)][βAla]LTF[R8]EYWAQ[Cba][S5]AAFAAF-NH2; staple 6-13) | 36 | 237 | 68 | 1210 | 1220 | 27 | > 50000 | > 50000 | 34500 | > 50000 | 45 |  |  |  |  |  |  |  |
| CC(=O)N[C@@H](CCCCN=[N+]=[N-])C(=O)NCCC(=O)N[C@@H](CC(C)C)C(=O)N[C@H](C(=O)N[C@@H](Cc1ccccc1)C(=O)N[C@]1(C)CCCCCCC=CCCC[C@@](C)(C(=O)N[C@@H](C)C(=O)N[C@@H](C)C(=O)N[C@@H](Cc2ccccc2)C(=O)NC(C)(C)C(=O)N[C@@H](C)C(=O)N[C@@H](C)C(N)=O)NC(=O)[C@H](CC2CCC2)NC(=O)[C@H](CCC(N)=O)NC(=O)[C@H](C)NC(=O)[C@H](Cc2c[nH]c3ccccc23)NC(=O)[C@H](Cc2ccc(O)cc2)NC(=O)[C@H](CCC(=O)O)NC1=O)[C@@H](C)O [Macrocycle 8, Ac-K(N3)-betaAla-L-T-F-X1a-E-Y-W-A-Q-Cba-X2a-AAF-Aib-AA-NH2(olefinstaple from X1ato X2a)] (Ac-[Lys(N3)][βAla]LTF[R8]EYWAQ[Cba][S5]AAF[Aib]AA-NH2; staple 6-13) |  |  |  |  |  | 7.4 | 16700 | > 50000 | > 50000 | > 50000 | 35 |  |  |  |  |  |  |  |
| CC(=O)N[C@@H](CCCCN=[N+]=[N-])C(=O)NCCC(=O)N[C@@H](CC(C)C)C(=O)N[C@H](C(=O)N[C@@H](Cc1ccccc1)C(=O)N[C@]1(C)CCCCCCC=CCCC[C@@](C)(C(=O)N[C@@H](C)C(=O)N[C@@H](C)C(=O)N[C@@H](CCC(=O)O)C(=O)N[C@@H](C)C(=O)N[C@@H](C)C(=O)N[C@H](C)C(N)=O)NC(=O)[C@H](CC2CCC2)NC(=O)[C@H](CCC(N)=O)NC(=O)[C@H](C)NC(=O)[C@H](Cc2c[nH]c3ccccc23)NC(=O)[C@H](Cc2ccc(O)cc2)NC(=O)[C@H](CCC(=O)O)NC1=O)[C@@H](C)O [Macrocycle 10, Ac-K(N3)-betaAla-L-T-F-X1a-E-Y-W-A-Q-Cba-X2a-AAEAA-(D-Ala)-NH2(olefinstaple from X1ato X2a)] (Ac-[Lys(N3)][βAla]LTF[R8]EYWAQ[Cba][S5]AAEAA[dA]-NH2; staple 6-13) |  |  |  |  |  | 3.1 | > 50000 | > 50000 |  |  |  | −18 | 2.14 | excellent solubility | 154 (≈ 343 µg/mL) |  |  |  |
| CC(=O)N[C@@H](CCCCN=[N+]=[N-])C(=O)NCCC(=O)N[C@@H](CC(C)C)C(=O)N[C@H](C(=O)N[C@@H](Cc1ccccc1)C(=O)N[C@]1(C)CCCCCCC=CCCC[C@@](C)(C(=O)N[C@@H](CC(C(=O)O)C(=O)O)C(=O)N[C@@H](C)C(=O)N[C@@H](C)C(=O)N[C@@H](C)C(=O)N[C@@H](C)C(=O)N[C@@H](C)C(N)=O)NC(=O)[C@H](CC2CCC2)NC(=O)[C@H](CCC(N)=O)NC(=O)[C@H](C)NC(=O)[C@H](Cc2c[nH]c3ccccc23)NC(=O)[C@H](Cc2ccc(O)cc2)NC(=O)[C@H](CCC(=O)O)NC1=O)[C@@H](C)O [Macrocycle 11, Ac-K(N3)-betaAla-L-T-F-X1a-E-Y-W-A-Q-Cba-X2a-(Gla)AAAAA-NH2(olefinstaple from X1ato X2a)] (Ac-[Lys(N3)][βAla]LTF[R8]EYWAQ[Cba][S5][Gla]AAAAA-NH2; staple 6-13) |  | 527 | 73 | 790 |  | 0.32 | > 50000 | > 50000 | > 50000 | > 50000 |  | −18 |  | excellent solubility | 163 (≈ 370 µg/mL) | at least 2 fold | −18 | 2.25 |
| CC(=O)N[C@@H](CCCCN=[N+]=[N-])C(=O)NCCC(=O)N[C@@H](CC(C)C)C(=O)N[C@H](C(=O)N[C@@H](Cc1ccccc1)C(=O)N[C@]1(C)CCCCCCC=CCCC[C@@](C)(C(=O)N[C@@H](C)C(=O)N[C@@H](C)C(=O)N[C@@H](C)C(N)=O)NC(=O)[C@H](CC2CCC2)NC(=O)[C@H](CCC(N)=O)NC(=O)[C@H](C)NC(=O)[C@H](Cc2c[nH]c3ccccc23)NC(=O)[C@H](Cc2ccc(O)cc2)NC(=O)[C@H](CCC(=O)O)NC1=O)[C@@H](C)O [Reference Macrocycle 1, Ac-K(N3)-betaAla-L-T-F-X1a-E-Y-W-A-Q-Cba-X2a-AAA-NH2 (olefin staple from X1a to X2a), reference compound] (Ac-[Lys(N3)][βAla]LTF[R8]EYWAQ[Cba][S5]AAA-NH2; staple 6-13) | 339 | 847 |  |  |  | 36 | > 50000 |  | > 50000 |  |  |  | 2.93 |  | 108 (≈ 211 µg/mL) |  |  |  |
